Read-outs that look alike come from different tables or passages of the source.
How the values were obtained:
Assay type in all cases: in vivo
Pyrenophora teres = test: Pyrenophora teres-test (barley)/preventive; settings: 192 h, read-out: Efficacy in %
Excerpt: (§1) The expected fungicidal action for a given combination of two or three active compounds can be calculated as follows, according to S. R. Colby (“Calculating Synergistic and Antagonistic Responses of Herbicide Combinations”, Weeds 1961 15, 20-22):
(§2) If • X is the efficacy when employing active compound A at an application rate of m g/ha, • Y is the efficacy when employing active compound B at an application rate of n g/ha and • E is the efficacy when employing active compounds A and B at application rates of m and n g/ha,
(§3) Here, the efficacy is determined in %. 0% means an efficacy which corresponds to that of the control, whereas an efficacy of 100% means that no infection is observed.
(§4) If the actual fungicidal action exceeds the calculated value, the action of the combination is superadditive, i.e. a synergistic effect is present. In this case, the actually observed efficacy must exceed the value calculated using the above formula for the expected efficacy (E).
Pyrenophora teres-Test (Barley)/Preventive
(§5) Solvent: 49 parts by weight of n,n-dimethylacetamid
(§6) Emulsifier: 1 part by weight of alkylaryl polyglycol ether
(§7) To produce a suitable preparation of active compound, 1 part by weight of active compound or active compound combination is mixed with the stated amounts of solvent and emulsifier, and the concentrate is diluted with water to the desired concentration.
(§8) To test for preventive activity, young plants are sprayed with the preparation of active compound or active compound combination at the stated rate of application.
After the spray coating has been dried on, the plants are sprayed with a spore suspension of Pyrenophora teres. The plants remain for 48 hours in an incubation cabinet at approximately 20° C. and a relative atmospheric humidity of approximately 100%.
The plants are placed in the greenhouse at a temperature of approximately 20° C. and a relative atmospheric humidity of approximately 80%.
The test is evaluated 8 days after the inoculation. 0% means an efficacy which corresponds to that of the control, while an efficacy of 100% means that no disease is observed.

Uromyces appendiculatus = test: Uromyces test (beans)/protective; settings: protective spray, evaluated 10 days after inoculation
Excerpt: as §1, §2, §3, §4
Uromyces Test (Beans)/Protective
(§9) Solvent: 24,5 parts by weight of acetone • 24,5 parts by weight of dimethylacetamide
as §6
(§10) To produce a suitable preparation of active compound, 1 part by weight of active compound is mixed with the stated amounts of solvent and emulsifier, and the concentrate is diluted with water to the desired concentration.
(§11) To test for protective activity, young plants are sprayed with the preparation of active compound at the stated rate of application. After the spray coating has dried on, the plants are inoculated with an aqueous spore suspension of the causal agent of bean rust (Uromyces appendiculatus) and then remain for 1 day in an incubation cabinet at approximately 20° C. and a relative atmospheric humidity of 100%.
(§12) The plants are then placed in a greenhouse at approximately 21° C. and a relative atmospheric humidity of approximately 90%.
(§13) The test is evaluated 10 days after the inoculation. 0% means an efficacy which corresponds to that of the control, while an efficacy of 100% means that no disease is observed.

Septoria tritici = test: Septoria tritici-test (wheat)/preventive; settings: preventive spray, evaluated 21 days after inoculation
Excerpt: as §1, §2, §3, §4
Septoria tritici-Test (Wheat)/Preventive
as §5, §6, §7, §8
After the spray coating has been dried on, the plants are sprayed with a spore suspension of Septoria tritici. The plants remain for 48 hours in an incubation cabinet at approximately 20° C. and a relative atmospheric humidity of approximately 100% and afterwards for 60 hours at approximately 15° C. in a translucent incubation cabinet at a relative atmospheric humidity of approximately 100%.
The plants are placed in the greenhouse at a temperature of approximately 15° C. and a relative atmospheric humidity of approximately 80%.
The test is evaluated 21 days after the inoculation. 0% means an efficacy which corresponds to that of the control, while an efficacy of 100% means that no disease is observed.

Sphaerotheca fuliginea = test: Sphaerotheca test (cucumbers)/protective; settings: protective spray, evaluated 7 days after inoculation
Excerpt: as §1, §2, §3, §4
Sphaerotheca Test (Cucumbers)/Protective
as §9
(§14) Emulsifier: 1 part by weight of alkylaryl polyglycol ether […]
(§15) The test is evaluated 7 days after the inoculation. […]

Venturia inaequalis = test: Venturia test (apples)/protective; settings: protective spray, evaluated 10 days after inoculation
Excerpt: as §1, §2, §3, §4
Venturia Test (Apples)/Protective
as §9, §6, §10
as §11, with “conidia” for “spore”, “apple scab (Venturia inaequalis)” for “bean rust (Uromyces appendiculatus)”
as §12, §13

[1] = test system: Blumeria graminis f.sp. tritici; test: Blumeria test (wheat)/preventive; settings: preventive spray, evaluated 7 days after inoculation
Excerpt: as §1, §2, §3, §4
Blumeria Test (Wheat)/Preventive
as §5, §14, §15

[2] = barley, preventive spray, 62.5 ppm, evaluated 8 days after inoculation

Compound: CO/N=C(/C1=NOCCO1)c1ccccc1Oc1ncnc(Oc2ccccc2Cl)c1F [Ex B1 Fluoxastrobin, Fluoxastrobin]
- pest or weed control at 62.5 ppm (Pyrenophora teres; [2]): 67%

Compound: CO/N=C(/C(=O)OC)c1ccccc1CO/N=C(\C)c1cccc(C(F)(F)F)c1 [Ex B1 Trifloxystrobin, Trifloxystrobin]
- Efficacy in % (Uromyces appendiculatus; 1 ppm): 70%
- Efficacy in % (Septoria tritici; 62.5 ppm): 94%

Compound: Cc1cc(O)no1 [Ex B2 Hymexazol, Hymexazol]
- pest or weed control at 1000 ppm (Pyrenophora teres; barley, preventive spray, 1000 ppm, evaluated 8 days after inoculation): 0%

Compound: CC(C)C1CCC(Cc2ccc(Cl)cc2)C1(O)Cn1cncn1 (stereo not drawn) [Ex B2 Ipconazole, Ipconazole]
- Efficacy in % (Sphaerotheca fuliginea; 5 ppm): 50%
- Efficacy in % (Sphaerotheca fuliginea; 10 ppm): 77%
- pest or weed control at 250 ppm (Pyrenophora teres; barley, preventive spray, 250 ppm, evaluated 8 days after inoculation): 33%

Compound: C[Si](C)(C)CC(O)(Cn1cncn1)c1ccc(F)cc1 (stereo not drawn) [Ex B2 Simeconazole, Simeconazole]
- Efficacy in % (Uromyces appendiculatus; 5 ppm): 84%
- Efficacy in % (Septoria tritici; 1000 ppm): 67%

Compound: Cn1cc(C(=O)Nc2ccc(F)cc2-c2ccc(Cl)c(Cl)c2)c(C(F)F)n1 [Ex B3 Bixafen, Bixafen]
- pest or weed control at 62.5 ppm (Pyrenophora teres; [2]): 78%
- Efficacy in % (Venturia inaequalis; 1 ppm): 73%

Compound: N#Cc1c[nH]cc1-c1cccc2c1OC(F)(F)O2 [Ex B4 Fludioxonil, Fludioxonil]
- Efficacy in % (Uromyces appendiculatus; 200 ppm): 70%
- pest or weed control at 125 ppm (Pyrenophora teres): 44%
- Efficacy in % (Venturia inaequalis; 50 ppm): 26%
- Efficacy in % (Venturia inaequalis; 100 ppm): 30%

Compound: COCC(=O)N(c1c(C)cccc1C)[C@H](C)C(=O)OC [Ex B4 Metalaxyl M, Metalaxyl M]
- Efficacy in % ([1]; 250 ppm): 0%
- Efficacy in % (Venturia inaequalis; 200 ppm): 29%

Compound: COCC(=O)N(c1c(C)cccc1C)C(C)C(=O)OC (stereo not drawn) [Ex B4 Metalaxyl, Metalaxyl]
- Efficacy in % (Septoria tritici; 1000 ppm): 33%

Compound: CCCN(CCOc1c(Cl)cc(Cl)cc1Cl)C(=O)n1ccnc1 [Ex B4 Prochloraz, Prochloraz]
- pest or weed control at 62.5 ppm (Pyrenophora teres): 89%

Compound: N#Cc1ccccc1NC(=O)c1snc(Cl)c1Cl [Ex I-2]
- Efficacy in % (Uromyces appendiculatus; 50 ppm): 8%
- Efficacy in % (Uromyces appendiculatus; 100 ppm): 0%
- Efficacy in % (Uromyces appendiculatus; 200 ppm): 15%
- Efficacy in % (Septoria tritici; 1000 ppm): 0%
- Efficacy in % ([1]; 1000 ppm): 22%
- pest or weed control at 250 ppm (Pyrenophora teres): 0%
- pest or weed control at 1000 ppm (Pyrenophora teres): 11%
- Efficacy in % (Venturia inaequalis; 50 ppm): 0%
- Efficacy in % (Venturia inaequalis; 100 ppm): 19%
- Efficacy in % (Venturia inaequalis; 200 ppm): 37%

Compound: Cc1nn(C)c(F)c1C(=O)Nc1ccccc1C(C)CC(C)C (stereo not drawn) [N-[2-(1,3-Dimethylbutyl)phenyl]-5-fluor-1,3-dimethyl-1H-pyrazole-4-carboxamide]
- pest or weed control at 62.5 ppm (Pyrenophora teres; [2]): 89%

From patent publication US8951934B2, “Active compound combinations” (Bayer CropScience AG, priority 2008, dated 2015)
